Values joined by “and” are separate entries in the source; they are usually repeats but may differ in a detail not shown here. Identical values can stand only once.
Columns and labels:
RecQ helicase = molecular target: T1, RecQ helicase (Escherichia coli, UniProt P15043); test: Cell-free fluorescence molecular beacon helicase assay; type: biochemical, E. coli; design: Average rate of reaction / Rate (Triplicate): unit: RFU/min; conditions: for Average rate of reaction: mean of triplicate; for Rate (Triplicate): rate of reaction=(F0-F35)/35; for Fluorescence at 35 minutes, Run 2 / Fluorescence at time 0, Run 2: duplicate, listed as M; for Change in helicase activity compared to the DMSO control: any of the tested concentrations (0.06-200 μg/mL)
T1 construct: a full-length E. coli helicase, RecQ, was used
T1 sequence (P15043 whole entry): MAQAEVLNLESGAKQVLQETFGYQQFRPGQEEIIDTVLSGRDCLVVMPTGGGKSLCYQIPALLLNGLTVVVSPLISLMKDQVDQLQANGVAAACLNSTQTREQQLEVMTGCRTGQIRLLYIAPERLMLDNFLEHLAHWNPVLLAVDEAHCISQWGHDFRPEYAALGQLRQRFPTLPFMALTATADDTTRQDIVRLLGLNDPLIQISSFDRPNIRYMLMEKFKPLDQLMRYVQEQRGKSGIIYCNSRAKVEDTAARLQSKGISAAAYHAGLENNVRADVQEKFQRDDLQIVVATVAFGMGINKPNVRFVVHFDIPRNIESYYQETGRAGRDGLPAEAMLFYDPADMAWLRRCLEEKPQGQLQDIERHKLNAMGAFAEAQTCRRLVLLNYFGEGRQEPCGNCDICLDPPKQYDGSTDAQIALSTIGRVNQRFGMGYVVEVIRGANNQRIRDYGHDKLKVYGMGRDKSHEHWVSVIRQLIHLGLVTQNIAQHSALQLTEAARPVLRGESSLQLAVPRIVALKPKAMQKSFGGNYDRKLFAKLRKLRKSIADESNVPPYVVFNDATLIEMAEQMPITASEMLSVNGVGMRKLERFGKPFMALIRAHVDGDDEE

human PBMC = test: LPS stimulated cytokine secretion in human PBMC pretreated with compounds (Phase 2); type: cell-based; design: TNF-α concentration in supernatant / IL-1β concentration in supernatant / IL-6 concentration in supernatant / IL-2 concentration in supernatant / IFN-g concentration in supernatant: unit of the concentration uncertain; conditions: for IL-1β Mean Fold-Change (Relative to LPS alone) / IL-6 Mean Fold-Change (Relative to LPS alone) / TNF-α Mean Fold-Change (Relative to LPS alone): 1 ng/mL LPS stimulation for 8 hours, means from 3 donors; for IL-2 concentration in supernatant / TNF-α concentration in supernatant / IL-1β concentration in supernatant / IFN-g concentration in supernatant / IL-6 concentration in supernatant: 8-hour 1 ng/mL LPS stimulation; for IL-2 concentration in supernatant: LLOQ = 1.698 pg/mL; for TNF-α concentration in supernatant: LLOQ = 2.018 pg/mL; for IL-1β concentration in supernatant: LLOQ = 2.299 pg/mL; for IFN-g concentration in supernatant: LLOQ = 2.792 pg/mL; for IL-6 concentration in supernatant: LLOQ = 0.831; for Effect on LPS stimulated cytokine secretion: any conditions tested
Description: Results are represented as fold-change relative to LPS treatment alone for each cytokine calculated by means from 3 separate donors.
RPMI medium alone, RPMI supplemented with 0.2% DMSO (to mimic treatment conditions) or LPS stimulation alone were used as controls.
Except for the two negative control conditions, all 3 donors responded to all experimental conditions tested with the secretion of TNF-α, IL-1β, and IL-6 albeit with a high degree of variability.

[1] = TA 0.2 μg/mL (plate column 5, wells A-C)
[2] = TA 2 μg/mL (plate column 7, wells A-C)
[3] = TA 6 μg/mL (plate column 8, wells A-C)
[4] = TA 200 μg/mL (plate column 11, wells A-C)
[5] = TA 200 + Buffer (plate column 12, wells A-C)

O=c1c(O)c(-c2cc(O)c(O)c(O)c2)oc2cc(O)cc(O)c12 [Myricetin]
Average rate of reaction (RecQ helicase; 0.06 μg/mL): 119.381
Rate (Triplicate) (RecQ helicase; 0.06 μg/mL): 156.0857 and 120.9143 and 81.14
Fluorescence at 35 minutes, Run 2 (RecQ helicase; 0.2 μg/mL): 3820 RFU and 2972 RFU
Fluorescence at time 0, Run 2 (RecQ helicase; 0.2 μg/mL): 5788 RFU and 4210 RFU
Average rate of reaction (RecQ helicase; 0.2 μg/mL): 54.7
Fluorescence at 35 minutes, Run 2 (RecQ helicase; 0.6 μg/mL): 4426 RFU and 3662 RFU
Fluorescence at time 0, Run 2 (RecQ helicase; 0.6 μg/mL): 9244 RFU and 9661 RFU
Average rate of reaction (RecQ helicase; 0.6 μg/mL): 39.68
Fluorescence at 35 minutes, Run 2 (RecQ helicase; 2 μg/mL): 4289 RFU and 4448 RFU
Fluorescence at time 0, Run 2 (RecQ helicase; 2 μg/mL): 8530 RFU and 9826 RFU
Average rate of reaction (RecQ helicase; 2.0 μg/mL): 98.63
Fluorescence at 35 minutes, Run 2 (RecQ helicase; 6 μg/mL): 3604 RFU and 4445 RFU
Average rate of reaction (RecQ helicase; 6.0 μg/mL): 107.0439
Fluorescence at 35 minutes, Run 2 (RecQ helicase; 20 μg/mL): 5025 RFU and 5336 RFU
Fluorescence at time 0, Run 2 (RecQ helicase; 20 μg/mL): 5022 RFU and 5466 RFU
Average rate of reaction (RecQ helicase; 20.0 μg/mL): 42.49
Fluorescence at 35 minutes, Run 2 (RecQ helicase; 60 μg/mL): 4100 RFU and 3834 RFU
Average rate of reaction (RecQ helicase; 60.0 μg/mL): 85
Fluorescence at 35 minutes, Run 2 (RecQ helicase; 200 μg/mL): 2562 RFU and 2378 RFU
Fluorescence at time 0, Run 2 (RecQ helicase; 200 μg/mL): 4555 RFU and 3893 RFU
Average rate of reaction (RecQ helicase; 200.0 μg/mL): 69.46
Rate (Triplicate) (RecQ helicase; 200.0 μg/mL): 81.98 and 52.34 and 74.0595
Fluorescence at 0:00:00, Run 1 (RecQ helicase; TA 0.06 μg/mL (plate column 4, wells A-C)): 14946 RFU and 8957 RFU and 8828 RFU
Fluorescence at 0:00:00, Run 1 (RecQ helicase; [1]): 10047 RFU and 9670 RFU and 6773 RFU
Fluorescence at 0:35:00, Run 1 (RecQ helicase; [1]): 7144 RFU and 8199 RFU and 5403 RFU
Fluorescence at 0:35:00, Run 1 (RecQ helicase; TA 0.6 μg/mL (plate column 6, wells A-C)): 7961 RFU and 4234 RFU and 5238 RFU
Fluorescence at 0:00:00, Run 1 (RecQ helicase; [2]): 12406 RFU and 10235 RFU and 7932 RFU
Fluorescence at 0:35:00, Run 1 (RecQ helicase; [2]): 8386 RFU and 5162 RFU and 6669 RFU
Fluorescence at 0:00:00, Run 1 (RecQ helicase; [3]): 13174 RFU and 13286 RFU and 6908 RFU
Fluorescence at 0:35:00, Run 1 (RecQ helicase; [3]): 9109 RFU and 7022 RFU and 6649 RFU
Fluorescence at 0:35:00, Run 1 (RecQ helicase; TA 20 μg/mL (plate column 9, wells A-C)): 7412 RFU and 10338 RFU and 6947 RFU
Fluorescence at 0:35:00, Run 1 (RecQ helicase; TA 60 μg/mL (plate column 10, wells A-C)): 8883 RFU and 7317 RFU and 6795 RFU
Fluorescence at 0:00:00, Run 1 (RecQ helicase; [4]): 6608 RFU and 4850 RFU and 6196 RFU
Fluorescence at 0:35:00, Run 1 (RecQ helicase; [4]): 5004 RFU and 3826 RFU and 4747 RFU
Fluorescence at 0:00:00, Run 1 (RecQ helicase; [5]): 5165 RFU and 8965 RFU and 8207 RFU
Fluorescence at 0:35:00, Run 1 (RecQ helicase; [5]): 3022 RFU and 4495 RFU and 5122 RFU
Change in helicase activity compared to the DMSO control (RecQ helicase): no observed consistent change
Change in helicase activity compared to the DMSO control (RecQ helicase; listed as myricetin): no effect
IL-1β Mean Fold-Change (Relative to LPS alone) (human PBMC; 10 mM (so in the source)): 1.10
IL-6 Mean Fold-Change (Relative to LPS alone) (human PBMC; 10 mM (so in the source)): 0.97
TNF-α Mean Fold-Change (Relative to LPS alone) (human PBMC; 10 mM (so in the source)): 0.90
IL-1β Mean Fold-Change (Relative to LPS alone) (human PBMC; 100 mM (so in the source)): 1.09
IL-6 Mean Fold-Change (Relative to LPS alone) (human PBMC; 100 mM (so in the source)): 0.88
TNF-α Mean Fold-Change (Relative to LPS alone) (human PBMC; 100 mM (so in the source)): 0.93
IL-1β Mean Fold-Change (Relative to LPS alone) (human PBMC; 200 mM (so in the source)): 0.98
IL-6 Mean Fold-Change (Relative to LPS alone) (human PBMC; 200 mM (so in the source)): 0.75
TNF-α Mean Fold-Change (Relative to LPS alone) (human PBMC; 200 mM (so in the source)): 0.86
IL-2 concentration in supernatant (human PBMC; Donor 1, 10 (unit uncertain)): <LLOQ
TNF-α concentration in supernatant (human PBMC; Donor 1, 10 (unit uncertain)): 1496.9 pg/mL
IL-1β concentration in supernatant (human PBMC; Donor 1, 10 (unit uncertain)): 3079.47 pg/mL
IFN-g concentration in supernatant (human PBMC; Donor 1, 10 (unit uncertain)): <LLOQ
IL-6 concentration in supernatant (human PBMC; Donor 1, 10 (unit uncertain)): 884.11 pg/mL
IL-2 concentration in supernatant (human PBMC; Donor 1, 100 (unit uncertain)): <LLOQ
TNF-α concentration in supernatant (human PBMC; Donor 1, 100 (unit uncertain)): 1251.59 pg/mL
IL-1β concentration in supernatant (human PBMC; Donor 1, 100 (unit uncertain)): 2858.12 pg/mL
IFN-g concentration in supernatant (human PBMC; Donor 1, 100 (unit uncertain)): <LLOQ
IL-6 concentration in supernatant (human PBMC; Donor 1, 100 (unit uncertain)): 767.01 pg/mL
IL-2 concentration in supernatant (human PBMC; Donor 1, 200 (unit uncertain)): <LLOQ
TNF-α concentration in supernatant (human PBMC; Donor 1, 200 (unit uncertain)): 1811.82 pg/mL
IL-1β concentration in supernatant (human PBMC; Donor 1, 200 (unit uncertain)): 2923.92 pg/mL
IFN-g concentration in supernatant (human PBMC; Donor 1, 200 (unit uncertain)): <LLOQ
IL-6 concentration in supernatant (human PBMC; Donor 1, 200 (unit uncertain)): 781.22 pg/mL
IL-2 concentration in supernatant (human PBMC; Donor 2, 10 (unit uncertain)): <LLOQ
TNF-α concentration in supernatant (human PBMC; Donor 2, 10 (unit uncertain)): 1006.28 pg/mL
IL-1β concentration in supernatant (human PBMC; Donor 2, 10 (unit uncertain)): 2517.48 pg/mL
IFN-g concentration in supernatant (human PBMC; Donor 2, 10 (unit uncertain)): <LLOQ
IL-6 concentration in supernatant (human PBMC; Donor 2, 10 (unit uncertain)): 685.49 pg/mL
IL-2 concentration in supernatant (human PBMC; Donor 2, 100 (unit uncertain)): <LLOQ
TNF-α concentration in supernatant (human PBMC; Donor 2, 100 (unit uncertain)): 1597.26 pg/mL
IL-1β concentration in supernatant (human PBMC; Donor 2, 100 (unit uncertain)): 3046.49 pg/mL
IFN-g concentration in supernatant (human PBMC; Donor 2, 100 (unit uncertain)): <LLOQ
IL-6 concentration in supernatant (human PBMC; Donor 2, 100 (unit uncertain)): 833.84 pg/mL
IL-2 concentration in supernatant (human PBMC; Donor 2, 200 (unit uncertain)): <LLOQ
TNF-α concentration in supernatant (human PBMC; Donor 2, 200 (unit uncertain)): 1021.2 pg/mL
IL-1β concentration in supernatant (human PBMC; Donor 2, 200 (unit uncertain)): 2501.45 pg/mL
IFN-g concentration in supernatant (human PBMC; Donor 2, 200 (unit uncertain)): <LLOQ
IL-6 concentration in supernatant (human PBMC; Donor 2, 200 (unit uncertain)): 649.98 pg/mL
IL-2 concentration in supernatant (human PBMC; Donor 3, 10 (unit uncertain)): <LLOQ
TNF-α concentration in supernatant (human PBMC; Donor 3, 10 (unit uncertain)): 4121.89 pg/mL
IL-1β concentration in supernatant (human PBMC; Donor 3, 10 (unit uncertain)): 3880.95 pg/mL
IFN-g concentration in supernatant (human PBMC; Donor 3, 10 (unit uncertain)): <LLOQ
IL-6 concentration in supernatant (human PBMC; Donor 3, 10 (unit uncertain)): 685.49 pg/mL
IL-2 concentration in supernatant (human PBMC; Donor 3, 100 (unit uncertain)): <LLOQ
TNF-α concentration in supernatant (human PBMC; Donor 3, 100 (unit uncertain)): 3225.93 pg/mL
IL-1β concentration in supernatant (human PBMC; Donor 3, 100 (unit uncertain)): 3293.89 pg/mL
IFN-g concentration in supernatant (human PBMC; Donor 3, 100 (unit uncertain)): <LLOQ
IL-6 concentration in supernatant (human PBMC; Donor 3, 100 (unit uncertain)): 833.84 pg/mL
IL-2 concentration in supernatant (human PBMC; Donor 3, 200 (unit uncertain)): <LLOQ
TNF-α concentration in supernatant (human PBMC; Donor 3, 200 (unit uncertain)): 2528.98 pg/mL
IL-1β concentration in supernatant (human PBMC; Donor 3, 200 (unit uncertain)): 2756.81 pg/mL
IFN-g concentration in supernatant (human PBMC; Donor 3, 200 (unit uncertain)): <LLOQ
IL-6 concentration in supernatant (human PBMC; Donor 3, 200 (unit uncertain)): 649.98 pg/mL
Effect on LPS stimulated cytokine secretion (human PBMC): did not appear to have any effect
Effect on LPS stimulated cytokine secretion (human PBMC; listed as myricetin): no effect
